From patent US8242280B2, “Fused ring heterocycle kinase modulators” (SGX Pharmaceuticals, Inc., priority 2007, dated 2012) come the findings set out here.

For test [1], the target named is Ba/F3 cells, ABL1 T315I (Homo sapiens, UniProt P00519, T315I, cells depend on it). Put plainly: 96-well XTT cell survival assay, Ba/F3 ABL1 T315I. The settings on record: 72 hours, read-out: ABL1 T315I XTT [Ba/F3] IC50. The test is classed as cell-based. The method in brief: (§1)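 Ba/F3 cells carrying wild-type or T315I ABL1 were seeded at 5000-8000 per well with graded compound concentrations in duplicate and grown 72 hours at 37° C. Survival was read by XTT/PMS reduction after a further 2-6 h, as absorbance at 405 nm with 650 nm background correction.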

The target in test [2] is T1, unphosphorylated T315I Abl kinase domain (Mus musculus, UniProt P00520, T315I).
T1 construct: purified and unphosphorylated T315I Abl kinase domain; made in house; host or cells: E. coli BL21(DE3) (Codon+RIL or pSA0145 strain)
T1 sequence (P00520 242-493 T315I limits assumed): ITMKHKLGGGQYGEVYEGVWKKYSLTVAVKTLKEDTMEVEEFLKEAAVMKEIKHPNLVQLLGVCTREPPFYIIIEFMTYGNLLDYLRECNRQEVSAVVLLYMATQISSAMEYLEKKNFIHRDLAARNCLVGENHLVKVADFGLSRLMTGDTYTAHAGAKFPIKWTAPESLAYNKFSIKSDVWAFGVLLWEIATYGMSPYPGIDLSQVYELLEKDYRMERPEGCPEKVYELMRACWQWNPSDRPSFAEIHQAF
As to the kind of experiment: c-Abl T315I 0P bioassay (pyruvate kinase/lactate dehydrogenase coupled enzyme assay). Particulars: zero phosphorylation state (0P), 10 μM ATP, read-out: AbI T315I 0P IC50. The test is classed as biochemical.

The target of test [3] is Ba/F3 cells, ABL1 WT (Homo sapiens, UniProt P00519). Put plainly: 96-well XTT cell survival assay, Ba/F3 ABL1 WT. The test is classed as cell-based. Particulars: 72 hours, read-out: ABL1 WT XTT [Ba/F3] IC50. The essentials:
as §1
Background: Formazan colour is commonly taken as a measure of viable cells.

pIC50: −log10 of the molar value. A value given as a limit tells only on which side of the number the result lay.

One may read the pIC50 as the negative decadic logarithm of the IC50, by convention in mol/L. Take `COc1ccccc1-c1n[nH]c2ncc(-c3cncc(C(O)C(=O)N(C)C)c3)cc12` (stereo not drawn): the GI50 in test [1] and in test [3] was less than 1000 nM in each case. Moreover, the pIC50 in test [2] is greater than 7.30.
For `Cc1n[nH]c(C)c1-c1c[nH]c2ncc(-c3cncc(C(O)C(=O)N(C)C)c3)cc12` (stereo not drawn), the GI50 in test [1] and in test [3] was greater than 1000 nM in each case. In addition, the pIC50 in test [2] is greater than 7.30.
Take `COc1ccccc1-c1n[nH]c2ncc(-c3cccc(C(O)C(=O)N(C)Cc4ccco4)c3)cc12` (stereo not drawn): the GI50 in test [1] and in test [3] was greater than 1000 nM in each case. Further, the pIC50 in test [2] is greater than 7.30.
Turning to `COc1ccccc1-c1c[nH]c2ncc(-c3cccc(C4NC(=O)NC(C)=C4C(=O)N(C)C)c3)cc12` (stereo not drawn), the GI50 in test [1] and in test [3] was greater than 1000 nM throughout. For the same compound, the pIC50 in test [2] was greater than 7.30.
As to `CCc1ccccc1-c1c[nH]c2ncc(-c3cncc(C(O)C(=O)N(C)C)c3)cc12` (stereo not drawn), the GI50 in test [1] and in test [3] was less than 1000 nM in each case. The pIC50 in test [2] is greater than 7.30.
With `COc1ccccc1-c1n[nH]c2ncc(-c3cccc(C(=O)C(=O)N(C)CCN(C)C)c3)cc12`, the GI50 in test [1] and in test [3] was less than 1000 nM each time. The pIC50 in test [2] was greater than 7.30.
For `COc1ncccc1-c1c[nH]c2ncc(-c3cncc(C(O)C(=O)N(C)C)c3)cc12` (stereo not drawn), the GI50 in test [1] was greater than 1000 nM; in test [3] it was less than 1000 nM. The pIC50 in test [2] was greater than 7.30.
As for `CN(C)C(=O)C(O)c1cncc(-c2cnc3[nH]cc(-c4cccc(S(C)(=O)=O)c4)c3c2)c1` (stereo not drawn), the GI50 in test [1] and in test [3] was greater than 1000 nM each time. Moreover, the pIC50 in test [2] was less than 6.30.
Take `CNC(C(=O)N(C)C)c1cccc(-c2cnc3[nH]nc(-c4ccccc4OC)c3c2)c1` (stereo not drawn): the GI50 in test [1] and in test [3] was greater than 1000 nM throughout. Besides, the pIC50 in test [2] was greater than 7.30.
Consider `CN(C)C(=O)C(O)c1cncc(-c2cnc3[nH]cc(-c4cccc(F)c4F)c3c2)c1` (stereo not drawn), for which the GI50 in test [1] and in test [3] was less than 1000 nM each time. In test [2], the pIC50 is greater than 7.30.
Consider `COc1ccccc1-c1n[nH]c2ncc(-c3cccc(C(C)C(=O)N4CCC(N(C)C)CC4)c3)cc12` (stereo not drawn), for which the GI50 in test [1] and in test [3] was less than 1000 nM throughout. Moreover, the pIC50 in test [2] is greater than 7.30.
On to `COc1ccccc1-c1n[nH]c2ncc(-c3cccc(C(O)C(=O)N4CCC(O)C4)c3)cc12` (stereo not drawn), for which the GI50 in test [1] and in test [3] was greater than 1000 nM each time. In addition, in test [2], the pIC50 is greater than 7.30.
Regarding `COC[C@H]1CCCN1C(=O)C(O)c1cccc(-c2cnc3[nH]nc(-c4ccccc4OC)c3c2)c1` (stereo partly drawn), the GI50 was greater than 1000 nM in test [1] and less than 1000 nM in test [3]. Also, the pIC50 in test [2] is greater than 7.30.
On the same counts, the results for `COc1ccccc1-c1n[nH]c2ncc(-c3cccc([C@@H](C)O)c3)cc12` are less than 1000 nM, less than 1000 nM and greater than 7.30.
As to `CN(C)C(=O)C(O)c1cncc(-c2cnc3[nH]cc(-c4ccc(Cl)cc4)c3c2)c1` (stereo not drawn), the GI50 in test [1] is greater than 1000 nM; in test [3], less than 1000 nM. Further, the pIC50 in test [2] was greater than 7.30.
On the same counts, the results for `COc1ccccc1-c1n[nH]c2ncc(-c3cccc(C(C)C(=O)N4CCC(O)C4)c3)cc12` (stereo not drawn) are greater than 1000 nM, greater than 1000 nM and greater than 7.30.
With `COc1ccccc1-c1c[nH]c2ncc(-c3cccc(C(O)C(=O)N(C)C)c3)cc12` (stereo not drawn), the GI50 in test [1] and in test [3] was less than 1000 nM in each case. For the same compound, the pIC50 in test [2] is greater than 7.30.
As for `COc1ccccc1-c1c[nH]c2ncc(-c3cccc(C(N)CC(=O)N(C)CCN(C)C)c3)cc12` (stereo not drawn), the GI50 in test [1] and in test [3] was greater than 1000 nM each time. For the same compound, in test [2], the pIC50 was greater than 7.30.
`CN(C)C(=O)C(O)c1cncc(-c2cnc3[nH]cc(-c4ccccc4)c3c2)c1` (stereo not drawn): the GI50 in test [1] and in test [3] was less than 1000 nM each time. For the same compound, the pIC50 in test [2] was greater than 7.30.
Turning to `COc1ccccc1-c1c[nH]c2ncc(-c3cccc(C(O)c4ccccn4)c3)cc12` (stereo not drawn), the GI50 in test [1] and in test [3] was less than 1000 nM each time. Besides, in test [2], the pIC50 was greater than 7.30.
`COc1ccccc1-c1c[nH]c2ncc(-c3cccc(C(CC(=O)N4CCC[C@@H]4CO)N4CCS(=O)(=O)CC4)c3)cc12` (stereo partly drawn): the GI50 in test [1] and in test [3] was greater than 1000 nM throughout. Besides, the negative logarithm of the IC50 (pIC50) in test [2] is 6.30 to 7.30.
As for `CNC(=O)C(O)c1cccc(-c2cnc3[nH]nc(-c4ccccc4OC)c3c2)c1` (stereo not drawn), the GI50 in test [1] and in test [3] was less than 1000 nM in each case. The pIC50 in test [2] was greater than 7.30.
